Reference: the supplement of paper PMC10307832

Legend:
Experiment in all cases: relative viability (nuclei count vs DMSO), 5 days (fraction); higher = more cells survive
[1] = compound: Cc1cc([C@@H](C)Nc2ccccc2C(=O)O)c2nc(N3CCOCC3)cc(=O)n2c1 [AZD6482] + COc1cccc2cc(-c3nc([C@H]4CC[C@H](C(=O)O)CC4)n4ncnc(N)c34)[nH]c12 [OSI-027] (partner 0.5 µM)
Outline: (§1)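 Relative viability divides the nuclei count in treated wells by that in vehicle wells. Lung cancer cell lines were seeded in 1536-well plates, dosed by pin tool the next day, and fixed and stained after 5 days in one step with final 0.05% Triton X-100, 1% formaldehyde and 1 ug/ml Hoechst. Dosing was a single drug or a fixed anchor-drug dose plus five library-drug doses (not always all listed) in √10 steps, and values are medians of duplicate plates imaged at 4×.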

[2] = compound: COc1cc2nc(N3CCCN(C)CC3)nc(NC3CCN(Cc4ccccc4)CC3)c2cc1OC + CS(=O)(=O)N1CCN(Cc2cc3nc(-c4cccc5[nH]ncc45)nc(N4CCOCC4)c3s2)CC1 [Pictilisib] (partner 1 µM)
Outline: as §1

[3] = compound: COc1cc2nc(N3CCCN(C)CC3)nc(NC3CCN(Cc4ccccc4)CC3)c2cc1OC + CCNC(=O)c1noc(-c2cc(C(C)C)c(O)cc2O)c1-c1ccc(CN2CCOCC2)cc1 [Luminespib] (partner 0.01 µM)
Outline: as §1

[4] = compound: Cc1cc([C@@H](C)Nc2ccccc2C(=O)O)c2nc(N3CCOCC3)cc(=O)n2c1 [AZD6482] + NC(=O)Nc1cc(-c2cccc(F)c2)sc1C(=O)N[C@H]1CCCNC1 [AZD7762] (partner 0.2 µM)
Outline: as §1

Cell Line	relative viability ([1]; first compound 0.08 µM)	relative viability ([1]; first compound 0.253 µM)	relative viability ([1]; first compound 0.8 µM)	relative viability ([1]; first compound 2.53 µM)	relative viability ([1]; first compound 8 µM)	relative viability ([2]; first compound 0.2 µM)	relative viability ([2]; first compound 0.6325 µM)	relative viability ([2]; first compound 2 µM)	relative viability ([2]; first compound 6.325 µM)	relative viability ([3]; first compound 0.2 µM)	relative viability ([3]; first compound 0.6325 µM)	relative viability ([3]; first compound 2 µM)	relative viability ([3]; first compound 6.325 µM)	relative viability ([4]; first compound 0.08 µM)	relative viability ([4]; first compound 0.253 µM)	relative viability ([4]; first compound 0.8 µM)	relative viability ([4]; first compound 8 µM)	relative viability ([4]; first compound 2.53 µM)
NCI-H1563	0.771	0.749	0.738	0.7	0.619	0.566	0.622	0.558	0.55	0.544	0.515	0.506	0.507					
NCI-H1623	0.392	0.404	0.432	0.388	0.397					0.493	0.586	0.502	0.513					
NCI-H1648	0.297	0.268	0.245	0.228	0.276									0.708	0.674	0.872	0.6	
NCI-H1650	0.536	0.636	0.569	0.347	0.447	0.543	0.699	0.544	0.548	0.181	0.19	0.197	0.174					
NCI-H1703						0.25	0.225	0.266	0.16							0.333	0.149	0.131
NCI-H2009	0.56	0.601	0.555	0.224	0.388	0.686	0.859	0.962	0.673	1.05	1.08	1.06	0.937					
NCI-H2023	0.398	0.336	0.341	0.237	0.245	0.204	0.279	0.211	0.0903	0.818	0.646	0.637	0.134					
NCI-H2228		0.316	0.548	0.358	0.445	0.385	0.256	0.405	0.175	0.162	0.12	0.138	0.101					
NCI-H2342	0.542	0.586	0.568	0.448	0.471					0.689	0.673	0.677	0.75	0.532	0.352	0.567	0.374	0.337
SK-LU-1		0.319	0.347	0.246	0.214	0.702	0.604	0.559	0.401	0.184	0.213	0.197	0.178					
SK-MES-1	0.502	0.554	0.417	0.302	0.293	0.339	0.41	0.364	0.31	0.836	0.702	0.889	0.129					
SW 900	0.45	0.471	0.433		0.492					0.143	0.188	0.18	0.156	0.402	0.512	0.445	0.501	0.497
SW 1573	0.662	0.52	0.558	0.341	0.347	0.478	0.539	0.537	0.325	0.179	0.27	0.356	0.152					
